Read-outs that look alike come from different tables or passages of the source.
Assays:
[1] = test system: Myzus persicae (Green Peach Aphid); experiment: Myzus persicae test, roots of infested pea seedlings placed in test solution; assay type: in vivo; settings: 144 h, read-out: control of Myzus persicae
Text: Myzus persicae (Green Peach Aphid):
Roots of pea seedlings, infested with an aphid population of mixed ages, were placed directly in the test solutions of 24 ppm. 6 days after introduction, samples were checked for mortality.

[2] = test system: Heliothis virescens (Tobacco Budworm); experiment: Heliothis virescens egg/larva test on artificial diet in 24-well microtiter plate; assay type: in vivo; settings: 96 h, 200 ppm by pipetting on eggs (0-24 h old) on artificial diet, 4 days, egg mortality, larval mortality, growth regulation
Text: Heliothis virescens (Tobacco Budworm):

[3] = roots of infested pea seedlings in test solutions of 24 ppm, 6 days, mortality

melting point [°C] | Structure (SMILES) | pest or weed control at 200 ppm [2] [%] | further results
136 | Fc1ccc2c(c1)CCC2NC1=NCCS1 (stereo not shown) | – | –
181 | Cc1ccc2c(c1)C(NC1=NCCS1)CC2 (stereo not shown) | – | –
191 | Oc1cccc2c1CCC2NC1=NCCS1 (stereo not shown) | – | –
161 | Fc1ccc2c(c1F)CCC2NC1=NCCS1 (stereo not shown) | – | –
60 to 66 | CC1(C)CC(NC2=NCCS2)c2ccccc21 (stereo not shown) | – | –
152 to 153 | COc1cc2c(cc1C)CCC2NC1=NCCS1 (stereo not shown) | – | –
165 | Fc1c(F)c(F)c2c(c1F)CCC2NC1=NCCS1 (stereo not shown) | – | –
148 to 149 | CCc1cc(F)c2c(c1)C(NC1=NCCS1)CC2 (stereo not shown) | – | –
131 | COC(=O)c1cccc2c1CCC2NC1=NCCS1 (stereo not shown) | – | –
170 to 171 | Ic1cccc2c1CCC2NC1=NCCS1 (stereo not shown) | – | –
142 to 143 | O=Cc1cccc2c1CCC2NC1=NCCS1 (stereo not shown) | – | –
– | Cc1cccc2c1CCC2NC1=NCCS1 (stereo not shown) [Compound 2.006, (4,5-Dihydro-thiazol-2-yl)-(4-methyl-indan-1-yl)-amine] | – | pest or weed control at 24 ppm [1]: ≥ 80%
– | Fc1cccc2c1CCC2NC1=NCCS1 (stereo not shown) [Compound 2.019] | ≥ 80 | pest or weed control at 24 ppm [1, 3]: ≥ 80%
– | Clc1cccc2c1CCC2NC1=NCCS1 (stereo not shown) [Compound 2.020] | ≥ 80 | –
– | Fc1cc(F)c2c(c1)C(NC1=NCCS1)CC2 (stereo not shown) [Compound 2.024] | ≥ 80 | pest or weed control at 24 ppm [1, 3]: ≥ 80%
– | Fc1ccc(F)c2c1CCC2NC1=NCCS1 (stereo not shown) [Compound 2.025] | ≥ 80 | pest or weed control at 24 ppm [1, 3]: ≥ 80%
– | Fc1cc(Br)cc2c1CCC2NC1=NCCS1 (stereo not shown) [Compound 2.026] | ≥ 80 | –
– | Fc1cc2c(c(F)c1F)CCC2NC1=NCCS1 (stereo not shown) [Compound 2.028] | ≥ 80 | –
– | Fc1cc(F)c2c(c1F)C(NC1=NCCS1)CC2 (stereo not shown) [Compound 2.030] | ≥ 80 | pest or weed control at 24 ppm [1, 3]: ≥ 80%
– | Cc1cc(F)c2c(c1)C(NC1=NCCS1)CC2 (stereo not shown) [Compound 2.031] | ≥ 80 | pest or weed control at 24 ppm [1, 3]: ≥ 80%

melting point [°C] | Structure (SMILES) | pest or weed control at 200 ppm [2] [%] | further results
101 to 103 | CCCC1(CCC)Cc2ccccc2C1NC1=NCCS1 (stereo not shown) [Compound 2.034] | – | –
143 to 146 | c1ccc(Oc2cccc3c2CCC3NC2=NCCS2)cc1 (stereo not shown) [Compound 2.041] | – | –
144 to 145 | O=[N+]([O-])c1cccc2c1CCC2NC1=NCCS1 (stereo not shown) [Compound 2.042] | – | –
– | Brc1ccc2c(c1)C(NC1=NCCS1)CC2 (stereo not shown) [Compound 2.049] | ≥ 80 | –
– | Fc1cccc2c1C(NC1=NCCS1)CC2 (stereo not shown) [Compound 2.052] | ≥ 80 | –
– | FC(F)c1cccc2c1CCC2NC1=NCCS1 (stereo not shown) [Compound 2.058] | ≥ 80 | pest or weed control at 24 ppm [1, 3]: ≥ 80%
– | Fc1cccc2c1CC(F)C2NC1=NCCS1 (stereo not shown) [Compound 2.067] | ≥ 80 | pest or weed control at 24 ppm [1, 3]: ≥ 80%
115 to 117 | ON(C1=NCCS1)C1CCc2c(Cl)cccc21 (stereo not shown) [Compound 7.001] | – | –
63 to 64 | CC(C)(C)OC(=O)NN(C1=NCCS1)C1CCc2ccccc21 (stereo not shown) [Compound 7.002] | – | –
91 to 92 | CC(=O)N(C(C)=O)N(C1=NCCS1)C1CCc2ccccc21 (stereo not shown) [Compound 7.004] | – | –
– | ON(C1=NCCS1)C1CCc2c(F)cccc21 (stereo not shown) [Compound 7.006] | – | pest or weed control at 24 ppm [1, 3]: ≥ 80%
– | Cc1cccc2c1CCC2N(O)C1=NCCS1 (stereo not shown) [Compound 7.010] | ≥ 80 | –
103 to 105 | NN(C1=NCCS1)C1CCc2ccccc21 (stereo not shown) [Compound 7.013] | – | –
– | N#CN1CCSC1=NC1CCc2ccccc21 (stereo not shown) [Compound 8.017, 2-(Indan-1-ylimino)-thiazolidine-3-carbonitrile] | ≥ 80 | –
– | CC(C)C(=O)N1CCS/C1=N\C1CCc2ccccc21 (stereo not shown) [Compound 10.006] | – | pest or weed control at 24 ppm [1, 3]: ≥ 80%
– | CCC(=O)N1CCS/C1=N\C1CCc2ccccc21 (stereo not shown) [Compound 10.011] | ≥ 80 | pest or weed control at 24 ppm [1, 3]: ≥ 80%
– | COC(=O)N1CCS/C1=N\C1CCc2ccccc21 (stereo not shown) [Compound 10.015] | ≥ 80 | pest or weed control at 24 ppm [1, 3]: ≥ 80%
– | CCOC(=O)N1CCS/C1=N\C1CCc2ccccc21 (stereo not shown) [Compound 10.020] | ≥ 80 | –
– | CC(=O)N1CCS/C1=N\C1CCc2ccccc21 (stereo not shown) [Compound 10.025] | ≥ 80 | –
– | CC(=O)OC1Cc2ccccc2C1NC1=NCCS1 (stereo not shown) [Compound 12.008] | ≥ 80 | –

Reference: patent US8309739B2, “Chemical compounds” (Syngenta Limited, priority 2005, dated 2012)
